Tests used:
Test in all cases: in-gel dye staining after TBE-urea PAGE
Details in all cases: 100 mM KCl, 1 mM MgCl2; 40 mM HEPES pH 7.5, 10 µM dye; very low fluorescence
[1] = system: 4LE-v1 (DNA, aptamer) TCCTTCGCACAGCACATAGTAGGGATGATGCGGCAGTGGGCTTCGCAGAACAGTGTTTATTCTGCGAGGGGACTACCTGCCGTATAGCTCTGAATCAAGGATTTTAGGGAGGCGATTCCTCCTGCC
[2] = system: 4LE-v2 (DNA, aptamer) TCCTTCGCACAGCACACCTGCCGTATTAGTAGGGATGATGCGGCAGTGGGCTTCGCAGAACAGTGTTTATTCTGCGAGGGGACTAAGCTCTGAATCAAGGATTTTAGGGAGGCGATTCCTCCTGCC
[3] = system: 4LE-v3 (DNA, aptamer) TCCTTCGCACAGCACACCTGCCGTATAGCTCTGAATCAATAGTAGGGATGATGCGGCAGTGGGCTTCGCAGAACAGTGTTTATTCTGCGAGGGGACTAGGATTTTAGGGAGGCGATTCCTCCTGCC

Measured: binding

CC1=N/C(=C\c2cc(F)c(O)c(F)c2)C(=O)N1CC(F)(F)F
weak: all assays above

Source: article PMC12956279 (2026)
